US11020395B2, “Cycloalkyl substituted triazole compounds as agonists of the APJ receptor” (AMGEN INC., priority 2016, dated 2021)

The molecules below were run against human APJ receptor (Homo sapiens (Human), UniProt P35414) (assay: [35S]GTPγS binding assay on membranes from CHO cells stably expressing human APJ receptor). Conditions: Activity hAPJ SPA EC50 IP, [35S]GTPγS SPA.
human APJ receptor, sequence (P35414 whole entry): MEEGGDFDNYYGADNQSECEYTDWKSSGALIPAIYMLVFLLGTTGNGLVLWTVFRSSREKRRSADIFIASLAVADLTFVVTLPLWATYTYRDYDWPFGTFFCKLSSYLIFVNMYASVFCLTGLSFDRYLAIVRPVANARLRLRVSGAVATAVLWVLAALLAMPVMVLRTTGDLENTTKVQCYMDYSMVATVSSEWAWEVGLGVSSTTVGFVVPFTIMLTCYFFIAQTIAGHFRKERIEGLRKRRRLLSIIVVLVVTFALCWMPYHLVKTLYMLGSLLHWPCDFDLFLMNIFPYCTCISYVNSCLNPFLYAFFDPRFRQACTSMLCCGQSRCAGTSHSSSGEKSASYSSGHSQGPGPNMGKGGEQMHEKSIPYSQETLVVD
Format: biochemical
Method in brief: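 Membranes from CHO cells stably expressing FLAG-tagged human APJ were incubated with [35S]GTPγS in buffer with optimized GDP, MgCl2 and NaCl, 90 min at RT. EC50 values derived by non-linear regression, averaged over several independent experiments.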
In the case of COc1cccc(OC)c1-n1c(NS(=O)(=O)[C@@H](C)[C@H](OC)c2ncc(C)cn2)nnc1C1CC1 [Example 16.0, (1R,2S)—N-(5-Cyclopropyl-4-(2,6-dimethoxyphenyl)-4H-1,2,4-triazol-3-yl)-1-methoxy-1-(5-methyl-2-pyrimidinyl)-2-propanesulfonamide], the EC50 is reported as 22 nM.

Same assay, conditions: [35S]GTPγS SPA, read-out: Activity hAPJ SPA EC50 IP
For COc1cccc(OC)c1-n1c(NS(=O)(=O)[C@@H](C)[C@H](OC)c2ncc(Cl)cn2)nnc1[C@H]1C[C@H](F)C1 (single isomer, unassigned) [Example 152.0, (1R,2S)-1-(5-chloropyrimidin-2-yl)-N-(4-(2,6-dimethoxyphenyl)-5-((1r,3S)-3-fluorocyclobutyl)-4H-1,2,4-triazol-3-yl)-1-methoxypropane-2-sulfonamide or (1R,2S)-1-(5-chloropyrimidin-2-yl)-N-(4-(2,6-dimethoxyphenyl)-5-((1s,3R)-3-fluorocyclobutyl)-4H-1,2,4-triazol-3-yl)-1-methoxypropane-2-sulfonamide], the EC50 was 4.2 nM.
Work on COc1cccc(OC)c1-n1c(NS(=O)(=O)[C@@H](C)[C@H](OCC(F)F)c2ncc(C)cn2)nnc1C1CCC1 [Example 209.0] yielded an EC50 of 18 nM.
COc1cccc(OC)c1-n1c(NS(=O)(=O)[C@@H](C)[C@H](OC)c2ncc(Cl)cn2)nnc1[C@H]1CC[C@H](OC)C1 (single isomer, unassigned) [Example 214.0] gave an EC50 of 20 nM.
Molecule COc1ncnc(OC)c1-n1c(NS(=O)(=O)[C@@H](C)[C@H](OC)c2ncc(Cl)cn2)nnc1C1CC(OC)(OC)C1 [Example 238.0, (1R,25)-1-(5-chloro-2-pyrimidinyl)-N-(5-(3,3-dimethoxycyclobutyl)-4-(4,6-dimethoxy-5-pyrimidinyl)-4H-1,2,4-triazol-3-yl)-1-methoxy-2-propanesulfonamide] has an EC50 of 120 nM.
Molecule COc1cccc(OC)c1-n1c(NS(=O)(=O)[C@@H](C)[C@H](OC)c2ncc(Cl)cn2)nnc1[C@H]1C[C@H](C(F)(F)F)C1 (single isomer, unassigned) [Example 150.0, (1R,2S)-1-(5-chloropyrimidin-2-yl)-N-(4-(2,6-dimethoxyphenyl)-5-((1r,3S)-3-(trifluoromethyl)cyclobutyl)-4H-1,2,4-triazol-3-yl)-1-methoxypropane-2-sulfonamide or (1R,2S)-1-(5-chloropyrimidin-2-yl)-N-(4-(2,6-dimethoxyphenyl)-5-((1s,3R)-3-(trifluoromethyl)cyclobutyl)-4H-1,2,4-triazol-3-yl)-1-methoxypropane-2-sulfonamide] has an EC50 of 6.8 nM.
With COc1cccc(OC)c1-n1c(NS(=O)(=O)[C@@H](C)[C@H](OC)c2ncc(Cl)cn2)nnc1C1CC2(CC2)C1 [Example 239.0, (1R,2S)-1-(5-chloro-2-pyrimidinyl)-N-(4-(2,6-dimethoxyphenyl)-5-(spiro[2.3]hexan-5-yl)-4H-1,2,4-triazol-3-yl)-1-methoxy-2-propanesulfonamide] the EC50 was 0.64 nM.
Work on COc1cccc(OC)c1-n1c(NS(=O)(=O)[C@@H](C)[C@@H](OC(C)C)c2ncc(C)cn2)nnc1[C@@H]1CCC[C@@H]1OC (single isomer, unassigned) [Example 233.0] yielded an EC50 of 94 nM.
In the case of COc1ncnc(OC)c1-n1c(NS(=O)(=O)[C@@H](C)[C@H](C)c2cnc(C)cn2)nnc1C1CCC1 [Example 88.0, (2S,3R)-N-(5-cyclobutyl-4-(4,6-dimethoxy-5-pyrimidinyl)-4H-1,2,4-triazol-3-yl)-3-(5-methyl-2-pyrazinyl)-2-butanesulfonamide], the EC50 is reported as 42 nM.
For COc1ncnc(OC)c1-n1c(NS(=O)(=O)[C@@H](C)[C@H](OC)c2ncc(Cl)cn2)nnc1[C@H]1CC[C@@H](F)CC1 (single isomer, unassigned) [Example 175.0, (1R,2S)-1-(5-chloropyrimidin-2-yl)-N-(4-(4,6-dimethoxypyrimidin-5-yl)-5-((1s,4R)-4-fluorocyclohexyl)-4H-1,2,4-triazol-3-yl)-1-methoxypropane-2-sulfonamide or (1R,2S)-1-(5-chloropyrimidin-2-yl)-N-(4-(4,6-dimethoxypyrimidin-5-yl)-5-((1r,4S)-4-fluorocyclohexyl)-4H-1,2,4-triazol-3-yl)-1-methoxypropane-2-sulfonamide], the EC50 was 59 nM.
CO[C@H](c1ncc(Cl)cn1)[C@H](C)S(=O)(=O)Nc1nnc(C2CCC2)n1C(C)C [Example 128.0] gave an EC50 of 330 nM.
“(1R,2S)-1-(5-chloropyrimidin-2-yl)-N-(4-(2,6-dimethoxyphenyl)-5-((S)-spiro[2.2]pentan-1-yl)-4H-1,2,4-triazol-3-yl)-1-methoxypropane-2-sulfonamide or (1R,2S)-1-(5-chloropyrimidin-2-yl)-N-(4-(2,6-dimethoxyphenyl)-5-((R)-spiro[2.2]pentan-1-yl)-4H-1,2,4-triazol-3-yl)-1-methoxypropane-2-sulfonamide [Example 223.0]” was tested, and the EC50 was 1.2 nM.
Work on COCC1(n2c(NS(=O)(=O)[C@@H](C)[C@H](OC)c3ncc(Cl)cn3)nnc2[C@H]2C[C@H](CO)C2)CC1 (single isomer, unassigned) [Example 133.0, (1R,2S)-1-(5-chloro-2-pyriminidyl)-N-(5-(trans-3-(hydroxymethyl)cyclobutyl)-4-(1-(methoxymethyl)cyclopropyl)-4H-1,2,4-triazol-3-yl)-1-methoxy-2-propanesulfonamide or (1R,2S)-1-(5-chloro-2-pyrimidinyl)-N-(5-(cis-3-(hydroxymethyl)cyclobutyl)-4-(1-(methoxymethyl)cyclopropyl)-4H-1,2,4-triazol-3-yl)-1-methoxy-2-propanesulfonamide] yielded an EC50 of 120 nM.
“(1R,2S)-1-(5-chloropyrimidin-2-yl)-N-(4-(2,6-dimethoxyphenyl)-5-((R)-3-oxocyclopentyl)-4H-1,2,4-triazol-3-yl)-1-methoxypropane-2-sulfonamide or (1R,2S)-1-(5-chloropyrimidin-2-yl)-N-(4-(2,6-dimethoxyphenyl)-5-((S)-3-oxocyclopentyl)-4H-1,2,4-triazol-3-yl)-1-methoxypropane-2-sulfonamide [Example 225.0]” gave an EC50 of 160 nM.
“(1R,2S)-1-(5-chloropyrimidin-2-yl)-N-(4-(4,6-dimethoxypyrimidin-5-yl)-5-((R)-6-oxaspiro[2.5]octan-1-yl)-4H-1,2,4-triazol-3-yl)-1-methoxypropane-2-sulfonamide or (1R,2S)-1-(5-chloropyrimidin-2-yl)-N-(4-(4,6-dimethoxypyrimidin-5-yl)-5-((S)-6-oxaspiro[2.5]octan-1-yl)-4H-1,2,4-triazol-3-yl)-1-methoxypropane-2-sulfonamide [Example 103.0]” was tested, and the EC50 was 39 nM.
COc1ncnc(OC)c1-n1c(NS(=O)(=O)[C@@H](C)[C@H](OC)c2ncc(Cl)cn2)nnc1[C@H]1C[C@@H](C(F)(F)F)C1 (single isomer, unassigned) [Example 178.0, (1R,2S)-1-(5-chloropyrimidin-2-yl)-N-(4-(4,6-dimethoxypyrimidin-5-yl)-5-((1s,3R)-3-(trifluoromethyl)cyclobutyl)-4H-1,2,4-triazol-3-yl)-1-methoxypropane-2-sulfonamide or (1R,2S)-1-(5-chloropyrimidin-2-yl)-N-(4-(4,6-dimethoxypyrimidin-5-yl)-5-((1r,3S)-3-(trifluoromethyl)cyclobutyl)-4H-1,2,4-triazol-3-yl)-1-methoxypropane-2-sulfonamide] gave an EC50 of 6.5 nM.
For COc1cccc(OC)c1-n1c(NS(=O)(=O)[C@@H](C)[C@H](OC)c2ncc(C)cn2)nnc1C1CCC1 [Example 141.0], the EC50 was 33 nM.
